In assay [1] the target is recombinant RORγ Ligand Binding Domain (LBD) protein (Homo sapiens (Human), UniProt P51449). In words: Radio-Ligand RORγ Binding Assay (Assay 1). Conditions: competition with 25-hydroxy [26,27-3H]-cholesterol, SPA. In a few lines:
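His-GST-fused RORγ ligand-binding domain (24 nM solution) competed between compounds and tritiated 25-hydroxycholesterol (8.6 nM solution), read by SPA after brief rt incubations in pH 7.4 HEPES/glycerol/detergent buffer. Four-parameter curve fitting gave IC50 at inflection, converted to Ki using radioligand concentration and KD.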

Assay [2] addresses full-length RORγt in Jurkat cells (Homo sapiens (Human), UniProt P51449). In words: RORγt 5×RORE Assay in Jurkat Cells (Assay 2). Type of assay: cell-based. Particulars: 5×RORE Nanoluc luciferase reporter.

Structures are written as SMILES. Some results are limits rather than exact numbers.

recombinant RORγ Ligand Binding Domain (LBD) protein, sequence (P51449 269-508): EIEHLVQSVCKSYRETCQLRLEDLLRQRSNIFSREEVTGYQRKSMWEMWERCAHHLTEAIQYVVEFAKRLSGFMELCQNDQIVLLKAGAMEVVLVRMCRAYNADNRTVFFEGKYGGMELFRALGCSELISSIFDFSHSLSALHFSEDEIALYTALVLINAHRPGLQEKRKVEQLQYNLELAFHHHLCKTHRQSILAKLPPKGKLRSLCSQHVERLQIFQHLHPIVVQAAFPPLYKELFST
full-length RORγt in Jurkat cells, sequence (P51449 other isoform, or with tags, fused parts or gaps): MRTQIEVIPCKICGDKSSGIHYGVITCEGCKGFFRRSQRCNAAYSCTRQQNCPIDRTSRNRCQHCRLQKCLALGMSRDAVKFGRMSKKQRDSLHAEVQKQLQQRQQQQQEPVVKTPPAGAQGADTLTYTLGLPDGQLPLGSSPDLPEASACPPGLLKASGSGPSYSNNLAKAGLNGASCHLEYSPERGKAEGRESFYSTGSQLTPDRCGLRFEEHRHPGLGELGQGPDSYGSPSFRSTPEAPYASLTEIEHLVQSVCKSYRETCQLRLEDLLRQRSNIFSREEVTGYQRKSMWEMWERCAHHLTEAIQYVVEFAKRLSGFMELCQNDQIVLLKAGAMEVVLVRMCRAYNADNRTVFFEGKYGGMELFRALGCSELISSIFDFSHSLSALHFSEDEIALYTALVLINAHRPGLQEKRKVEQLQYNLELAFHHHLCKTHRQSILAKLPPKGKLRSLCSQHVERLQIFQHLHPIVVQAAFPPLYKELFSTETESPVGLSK

`CS(=O)(=O)c1ccc(CNC(=O)c2ccc3c(c2)nc(C2(F)CC2)n3Cc2cccc3c2OC(F)(F)O3)nc1` [I-68, 1-((2,2-difluorobenzo[d][1,3]dioxol-4-yl)methyl)-2-(1-fluorocyclopropyl)-N-((5-(methylsulfonyl)pyridin-2-yl)methyl)-1H-benzo[d]imidazole-5-carboxamide]: the inhibition constant Ki in assay [1] is below 100 nM. In addition, in assay [2], the half-inhibitory concentration (IC50) was below 100 nM.

Regarding `CCS(=O)(=O)c1ccc(CNC(=O)c2ccc3c(c2)nc(C2(F)CCC2)n3Cc2cccc3c2OC(F)(F)O3)nc1` [I-69, 1-((2,2-difluorobenzo[d][1,3]dioxol-4-yl)methyl)-N-((5-(ethylsulfonyl)pyridin-2-yl)methyl)-2-(1-fluorocyclobutyl)-1H-benzo[d]imidazole-5-carboxamide], in assay [1], the inhibitory constant (Ki) was below 100 nM. In addition, the IC50 in assay [2] is below 100 nM.

Consider `CS(=O)(=O)c1ccc(CNC(=O)c2ccc3c(c2)nc(C(F)(F)F)n3Cc2cccc3c2OC(F)(F)O3)nc1` [I-70, 1-((2,2-difluorobenzo[d][1,3]dioxol-4-yl)methyl)-N-((5-(methylsulfonyl)pyridin-2-yl)methyl)-2-(trifluoromethyl)-1H-benzo[d]imidazole-5-carboxamide], for which the Ki in assay [1] is below 100 nM. This compound also showed an IC50 in assay [2] below 100 nM.

In the case of `CS(=O)(=O)N1CCC(CNC(=O)c2ccc3c(c2)nc(C(F)(F)F)n3Cc2cccc3c2OC(F)(F)O3)CC1` [I-71, 1-((2,2-difluorobenzo[d][1,3]dioxol-4-yl)methyl)-N-((1-(methylsulfonyl)piperidin-4-yl)methyl)-2-(trifluoromethyl)-1H-benzo[d]imidazole-5-carboxamide], in assay [1], the inhibition constant Ki is below 100 nM. In assay [2], this compound registered an IC50 below 100 nM.

Turning to `CS(=O)(=O)N1CCC(CNC(=O)c2ccc3c(c2)nc(C2CC2)n3Cc2cccc3c2OC(F)(F)O3)CC1` [I-72, 2-cyclopropyl-1-((2,2-difluorobenzo[d][1,3]dioxol-4-yl)methyl)-N-((1-(methylsulfonyl)piperidin-4-yl)methyl)-1H-benzo[d]imidazole-5-carboxamide], in assay [1], the Ki is below 100 nM. For the same compound, the IC50 in assay [2] was below 100 nM.

In the case of `CS(=O)(=O)N1CCC(CNC(=O)c2ccc3c(c2)nc(C2(F)CC2)n3Cc2cccc3c2OC(F)(F)O3)CC1` [I-73, 1-((2,2-difluorobenzo[d][1,3]dioxol-4-yl)methyl)-2-(1-fluorocyclopropyl)-N-((1-(methylsulfonyl)piperidin-4-yl)methyl)-1H-benzo[d]imidazole-5-carboxamide], the inhibition constant Ki in assay [1] was below 100 nM. This compound came in with an IC50 in assay [2] below 100 nM.

As to `COC(=O)CS(=O)(=O)N1CCC(CNC(=O)c2ccc3c(c2)nc(C(F)(F)F)n3Cc2cccc3c2OC(F)(F)O3)CC1` [I-74, methyl 2-((4-((1-((2,2-difluorobenzo[d][1,3]dioxol-4-yl)methyl)-2-(trifluoromethyl)-1H-benzo[d]imidazole-5-carboxamido)methyl)piperidin-1-yl)sulfonyl)acetate], in assay [1], the Ki is below 100 nM. The compound further returned an IC50 in assay [2] below 100 nM.

For `CNC(=O)CS(=O)(=O)N1CCC(CNC(=O)c2ccc3c(c2)nc(C(F)(F)F)n3Cc2cccc3c2OC(F)(F)O3)CC1` [I-75, 1-((2,2-difluorobenzo[d][1,3]dioxol-4-yl)methyl)-N-((1-((2-(methylamino)-2-oxoethyl)sulfonyl)piperidin-4-yl)methyl)-2-(trifluoromethyl)-1H-benzo[d]imidazole-5-carboxamide], in assay [1], the inhibition constant Ki is below 100 nM. In addition, in assay [2], the IC50 is below 100 nM.

As for `COC(=O)C(NC(=O)c1ccc2c(c1)nc(C(F)(F)F)n2Cc1cccc2c1OC(F)(F)O2)C1CCN(S(C)(=O)=O)CC1` (stereo not shown) [I-76, methyl 2-(1-((2,2-difluorobenzo[d][1,3]dioxol-4-yl)methyl)-2-(trifluoromethyl)-1H-benzo[d]imidazole-5-carboxamido)-2-(1-(methylsulfonyl)piperidin-4-yl)acetate], the inhibition constant (Ki) in assay [1] is below 100 nM. In assay [2], this compound returned an IC50 below 100 nM.

In the case of `CNS(=O)(=O)N1CCC(CNC(=O)c2ccc3c(c2)nc(C(F)(F)F)n3Cc2cccc3c2OC(F)(F)O3)CC1` [I-77, 1-((2,2-difluorobenzo[d][1,3]dioxol-4-yl)methyl)-N-((1-(N-methylsulfamoyl)piperidin-4-yl)methyl)-2-(trifluoromethyl)-1H-benzo[d]imidazole-5-carboxamide], in assay [1], the Ki is below 100 nM. The compound further yielded an IC50 in assay [2] below 100 nM.

Regarding `NC(=O)CS(=O)(=O)N1CCC(CNC(=O)c2ccc3c(c2)nc(C(F)(F)F)n3Cc2cccc3c2OC(F)(F)O3)CC1` [I-78, N-((1-((2-amino-2-oxoethyl)sulfonyl)piperidin-4-yl)methyl)-1-((2,2-difluorobenzo[d][1,3]dioxol-4-yl)methyl)-2-(trifluoromethyl)-1H-benzo[d]imidazole-5-carboxamide], in assay [1], the Ki was below 100 nM. In assay [2], this compound gave a half-inhibitory concentration (IC50) below 100 nM.

With `CNC(=O)CS(=O)(=O)N1CCC(CNC(=O)c2ccc3c(c2)nc(C2CC2)n3Cc2cccc3c2OC(F)(F)O3)CC1` [I-79, 2-cyclopropyl-1-((2,2-difluorobenzo[d][1,3]dioxol-4-yl)methyl)-N-((1-((2-(methylamino)-2-oxoethyl)sulfonyl)piperidin-4-yl)methyl)-1H-benzo[d]imidazole-5-carboxamide], the inhibition constant (Ki) in assay [1] is below 100 nM. The half-maximal inhibitory concentration (IC50) in assay [2] is 100 to 1000 nM.

`CCS(=O)(=O)c1ccc([C@H](CO)NC(=O)c2ccc3c(c2)nc(C(F)(F)F)n3Cc2cccc3c2OCC3)cc1` [I-80, (R)-1-((2,3-dihydrobenzofuran-7-yl)methyl)-N-(1-(4-(ethylsulfonyl)phenyl)-2-hydroxyethyl)-2-(trifluoromethyl)-1H-benzo[d]imidazole-5-carboxamide]: the Ki in assay [1] was below 100 nM. Also, in assay [2], the IC50 lay in the range of 100 to 1000 nM.

Turning to `CCS(=O)(=O)c1ccc([C@H](CO)NC(=O)c2ccc3c(c2)nc(C(F)(F)F)n3Cc2cccc3c2OCO3)cc1` [I-81, (R)-1-(benzo[d][1,3]dioxol-4-ylmethyl)-N-(1-(4-(ethylsulfonyl)phenyl)-2-hydroxyethyl)-2-(trifluoromethyl)-1H-benzo[d]imidazole-5-carboxamide], the inhibition constant (Ki) in assay [1] was below 100 nM. The compound further displayed a 50% inhibitory concentration (IC50) in assay [2] below 100 nM.

With `CCS(=O)(=O)c1ccc(CNC(=O)c2ccc3c(c2)nc(C(F)(F)F)n3Cc2cc(OC)cc(OC)c2)cc1` [I-82, 1-(3,5-dimethoxybenzyl)-N-(4-(ethylsulfonyl)benzyl)-2-(trifluoromethyl)-1H-benzo[d]imidazole-5-carboxamide], the Ki in assay [1] was below 100 nM. For the same compound, the IC50 in assay [2] was above 1000 nM.

Regarding `CCS(=O)(=O)c1ccc(CNC(=O)c2ccc3c(c2)nc(C(F)(F)F)n3Cc2ccc(OC)c(C#N)c2)cc1` [I-83, 1-(3-cyano-4-methoxybenzyl)-N-(4-(ethylsulfonyl)benzyl)-2-(trifluoromethyl)-1H-benzo[d]imidazole-5-carboxamide], the Ki in assay [1] was below 100 nM. This compound returned an IC50 in assay [2] of 100 to 1000 nM.

With `CCS(=O)(=O)c1ccc(CNC(=O)c2ccc3c(c2)nc(C(F)(F)F)n3Cc2ccc(OC(F)(F)F)cc2)cc1` [I-84, N-(4-(ethylsulfonyl)benzyl)-1-(4-(trifluoromethoxy)benzyl)-2-(trifluoromethyl)-1H-benzo[d]imidazole-5-carboxamide], in assay [1], the inhibitory constant (Ki) was below 100 nM. Also, the IC50 in assay [2] fell in the range of 100 to 1000 nM.

Values taken from patent publication US10829481B2, “Benzimidazole derivatives as modulators of ROR-gamma” (Vitae Pharmaceuticals, LLC, priority 2016, dated 2020).
